Measured values as given in the NIST ThermoML archive (doi:10.1021/je700740e).

Conditions: Liquid; for mass density: Vibrating tube method; for viscosity: Vibrating wire viscometry

CCOC(=O)CCCCC(=O)OCC [diethyl hexanedioate]
Conditions	mass density [kg/m3]	viscosity [mPa·s]
303.15 K, 100 kPa	998.842	2.786
303.15 K, 4520 kPa	1001.81	2.909
303.15 K, 9610 kPa	1005.24	3.061
303.15 K, 14700 kPa	1008.51	3.226
303.15 K, 19790 kPa	1012.52	3.343
313.15 K, 100 kPa	989.86	2.257
313.15 K, 4520 kPa	993.535	2.335
313.15 K, 9630 kPa	996.693	2.472
313.15 K, 14750 kPa	1000.42	2.589
313.15 K, 19890 kPa	1003.55	2.726
323.15 K, 100 kPa	981.395	1.846
323.15 K, 4520 kPa	984.72	1.932
323.15 K, 9600 kPa	988.74	2.021
323.15 K, 14690 kPa	992.273	2.126
323.15 K, 19710 kPa	995.581	2.23
333.15 K, 100 kPa	971.597	1.58
333.15 K, 4520 kPa	975.516	1.642
333.15 K, 9630 kPa	979.685	1.716
333.15 K, 14710 kPa	983.483	1.802
333.15 K, 19710 kPa	987.107	1.886
343.15 K, 100 kPa	962.622	1.35
343.15 K, 4510 kPa	966.544	1.407
343.15 K, 9600 kPa	970.932	1.471
343.15 K, 14700 kPa	975.031	1.542
343.15 K, 19700 kPa	978.932	1.608
353.15 K, 100 kPa	953.224	1.179
353.15 K, 4520 kPa	957.353	1.227
353.15 K, 9620 kPa	962.118	1.28
353.15 K, 14710 kPa	966.479	1.338
353.15 K, 19680 kPa	970.392	1.402
363.15 K, 100 kPa	943.203	1.041
363.15 K, 4520 kPa	948.203	1.078
363.15 K, 9610 kPa	953.106	1.129
363.15 K, 14700 kPa	957.919	1.174
363.15 K, 19710 kPa	962.125	1.226
373.15 K, 100 kPa	934.753	0.914
373.15 K, 4520 kPa	939.138	0.956
373.15 K, 9620 kPa	944.359	1
373.15 K, 14680 kPa	948.986	1.046
373.15 K, 19910 kPa	953.741	1.096

Cc1ccccc1 [toluene]
Conditions	mass density, 298.15 K [kg/m3]	mass density, 323.15 K [kg/m3]	viscosity, 298.15 K [mPa·s]	viscosity, 323.15 K [mPa·s]
100 kPa	862.5	–	0.555	–
120 kPa	–	840.467	–	0.425
2300 kPa	864.389	–	0.569	–
3340 kPa	–	843.459	–	0.431
4400 kPa	865.888	–	0.58	–
6340 kPa	–	846.144	–	0.448
7430 kPa	868.038	–	0.593	–
9600 kPa	–	848.793	–	0.461
10400 kPa	870.54	–	0.597	–
12470 kPa	871.736	–	0.613	–
12750 kPa	–	851.586	–	0.464
14490 kPa	873.496	–	0.617	–
14770 kPa	–	853.276	–	0.466
